Columns and labels:
[1] = GSK_TCAKS: pIC50 HepG2 human cell line viability assay using luminiscence. […] Seeding density was checked to ensure that new mono-layers were not more than 50% confluent at the time of harvesting. Cell suspension was added to 500 mL of the same medium at a final density of 1.2 * 10^5 cells/mL. This cell suspension was dispensed (25 uL, 3000 cells per well) into 384-well clear-bottom plates using a Multidrop Combi dispenser. Prior to addition of the cell suspension, the screening compounds (250 nL) were pre-dispensed into the plates with an Echo liquid handler. Plates were incubated for 48 h at 37C, 5% CO2. After incubation, plates equilibrated at room temperature for 30 min before proceeding to develop the luminescent signal. The signal developer, CellTiter-Glo Reagent, was allowed to equilibrate at room temperature for 30 min and added to the plates (25uL per well) using a Multidrop Combi dispenser. Plates were left for 10 min at room temperature for stabilization and then read using a ViewLux.; type: toxicity, cell-based
Leishmania donovani [2] = experiment: GSK_TCAKS: pIC50 Leishmania donovani viability assay using fluorescence intensity. Assay plates (1536-well) were prepared by adding 30nL per well of compound. For single shot assay, the final compound concentration was 5uM. […] Briefly, eGFP LdBOB axenic amastigotes were harvested, fixed and counted in a CASY cell counter (Roche-Applied Science). A final concentration of 1.5 * 10^5 cells per well were prepared in amastigote media containing 500 U/mL penicillin/streptomycin (Invitrogen) and 6uL was dispensed to each experimental well using a Multidrop Combi dispenser (Thermo Scientific). 6uL of assay media was dispensed to control columns used as reference for 100% compound response. Following incubation for 72 h at 37C, 5% CO2, 2 uL of resazurin was added to each well at a final concentration of 0.5 mM in phosphate buffered saline (PBS) with IGEPAL (Sigma-Aldrich), 0.05% (v/v).; type: functional, organism-based
[3] = system: Trypanosoma brucei brucei; experiment: GSK_TCAKS: pIC50 Trypanosoma brucei viability assay using luminiscence. Assay plates (1536-well) were prepared. T. brucei cultures were harvested and counted in a CASY cell counter. A parasite suspension was prepared at a final concentration of 5 * 10^4 cells/mL in complete HMI9 medium and 6uL was dispensed to all wells containing compounds using a Multidrop Combi dispenser. 6uL of HMI9 media with 0.4% DMSO were dispensed to control columns. Plates were incubated for 24 h at 37C, 5% CO2 then tempered for 10 min at room temperature. ATP content was quantified by adding 4 uL of CellTiter-Glo Reagent (Promega) according to the manufacturer's instructions. Luminescence was measured using a ViewLux.; type: functional, organism-based; details: Lister 427, CASY
Leishmania donovani [4] = experiment: (§1) GSK_TCAKS: pIC50 Leishmania donovani Imaging: Infected Macrophages. Assay plates (384-well) were prepared by adding 250nL of compound to each well. For single shot assay, the final compound concentration was 5 uM. […] Automated image analysis was performed with a script developed on Acapella High Content Imaging and Analysis Software (PerkinElmer). Output: Percent of infected macrophage cells were reported for each well.; type: functional, organism-based, Homo sapiens; details: THP-1
Leishmania donovani [5] = experiment: as §1, with “THP-1 Host” for “Infected”, “THP-1 cell count” for “Percent of infected macrophage cells”; type: functional, organism-based, Homo sapiens
Trypanosoma cruzi [6] = experiment: (§2) GSK_TCAKS: pIC50 Trypanosoma cruzi Imaging: Amastigotes/Cell. […] Cells were then washed once with PBS before infection. T. cruzi trypomastigotes, collected at days 5 to 8 after infection from LLC-MK2 parasite infected cultures, were allowed to swim out for 4h at 37C from a centrifuged pellet (2,500 rpm/10 min/room temperature). Trypomastigotes were then collected and counted in a CASY Cell Counter. Trypomastigotes, in supplemented DMEM, were added to H9c2 cultures in a multiplicity of infection of 1 and incubated for 18 h. Cells were washed once with PBS before incubation of the infected H9c2 monolayer with trypsin (Life-Technologies) to detach cells from the flask. Cells were counted in a CASY Cell Counter using a 150 um capillary and their density set at 5 * 10^4 cells per mL in supplemented assay DMEM. Infected H9c2 were dispensed into 384-well poly-lysine coated assay plates at 50uL per well using a Multidrop Combi dispenser. After seeding them, the plates were incubated at 37C, 5% CO2 for 72h. Cultures were then fixed and stained by addition of 50 uL of a solution containing 8% formaldehyde and 4 uM DRAQ5 DNA dye (BioStatus, UK) per well. […] Five images were collected per well for reliable statistical analysis. Automated image analysis was performed with a script developed on Acapella High Content Imaging and Analysis Software (PerkinElmer). Output: number of amastigotes per cell as infection level measurement.; type: functional, organism-based, Rattus norvegicus; details: H9c2, 4 h
[7] = molecular target: Sterol 14-alpha demethylase (Trypanosoma cruzi (strain CL Brener), UniProt Q7Z1V1); experiment: GSK_TCAKS: pIC50 CYP51 from Trypanosoma cruzi.; type: functional
Sequence of Sterol 14-alpha demethylase (Q7Z1V1 whole entry): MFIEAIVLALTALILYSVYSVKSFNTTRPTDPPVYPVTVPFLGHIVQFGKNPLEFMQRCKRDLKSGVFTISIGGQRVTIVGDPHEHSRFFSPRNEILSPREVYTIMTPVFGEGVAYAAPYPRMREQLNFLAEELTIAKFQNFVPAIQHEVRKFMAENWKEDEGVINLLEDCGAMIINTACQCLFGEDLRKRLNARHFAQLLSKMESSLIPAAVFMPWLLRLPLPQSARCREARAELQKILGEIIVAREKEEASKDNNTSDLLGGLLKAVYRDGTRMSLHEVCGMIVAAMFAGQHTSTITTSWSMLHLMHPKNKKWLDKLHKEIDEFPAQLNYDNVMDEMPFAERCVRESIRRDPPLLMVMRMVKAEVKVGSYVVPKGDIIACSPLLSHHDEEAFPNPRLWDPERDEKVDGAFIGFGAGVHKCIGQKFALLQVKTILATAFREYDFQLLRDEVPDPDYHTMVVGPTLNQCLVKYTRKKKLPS

Trypanosoma cruzi [8] = experiment: as §2, with “H2C9” for “Trypanosoma cruzi”, “H9c2 Host Cardiomyocytes.” for “Amastigotes/Cell.”, “Number” for “number”, “H9c2 Host Cardiomyocytes nuclei to determine drug-related cytotoxicity.” for “amastigotes per cell as infection level measurement.”; type: functional, organism-based, Rattus norvegicus; details: H9c2, 4 h
Trypanosoma cruzi [9] = experiment: GSK_TCAKS: pIC50 Trypanosoma cruzi Imaging: Infected Cells. […] Cells were then washed once with PBS before infection. T. cruzi trypomastigotes, collected at days 5 to 8 after infection from LLC-MK2 parasite infected cultures, were allowed to swim out for 4h at 37C from a centrifuged pellet (2,500 rpm/10 min/room temperature). Trypomastigotes were then collected and counted in a CASY Cell Counter. Trypomastigotes, in supplemented DMEM, were added to H9c2 cultures in a multiplicity of infection of 1 and incubated for 18 h. Cells were washed once with PBS before incubation of the infected H9c2 monolayer with trypsin (Life-Technologies) to detach cells from the flask. Cells were counted in a CASY Cell Counter using a 150 um capillary and their density set at 5 * 10^4 cells per mL in supplemented assay DMEM. Infected H9c2 were dispensed into 384-well poly-lysine coated assay plates at 50uL per well using a Multidrop Combi dispenser. After seeding them, the plates were incubated at 37C, 5% CO2 for 72h. Cultures were then fixed and stained by addition of 50 uL of a solution containing 8% formaldehyde and 4 uM DRAQ5 DNA dye (BioStatus, UK) per well. […] Five images were collected per well for reliable statistical analysis. Automated image analysis was performed with a script developed on Acapella High Content Imaging and Analysis Software (PerkinElmer). Output: percentage of infected cells per well as a second infection marker.; type: functional, organism-based, Rattus norvegicus; details: H9c2, 4 h
[10] = system: Trypanosoma brucei brucei; experiment: GSK_TCAKS: pIC50 Trypanosoma brucei viability assay using fluorescence intensity. Assay plates (1536-well) were prepared by dispensing 25nL of compound solution per well using an Echo acoustic dispenser (Labcyte).; type: functional, organism-based; details: Lister 427, 2 h
Trypanosoma cruzi [11] = experiment: GSK_TCAKS: pIC50 Trypanosoma cruzi viability assay using beta-GAL activity. This assay was run at single shot at 5uM compound concentration per well. The biological reagents consisted of NIH-3T3 host cells and trypomastigotes parasitic cells; both cell types were set to a 3.3 * 10^5 cells/mL dilution in assay DMEM by means of a CASY cell counter device using a 60um capillary. 6 uL of the mixture were dispensed per well (about 1 * 10^3 host-cells and 1 * 10^3 parasites) with a Multidrop Combi dispenser. […] In all wells, the percentage of DMSO never exceeded 0.5%. Plates incubated for four days at 37C, 5% CO2. The substrate used for the assay fluorescence intensity (FLINT) readout was resorufin-beta-D-galactopiranoside (Sigma-Aldrich) at 5uM per well. It was diluted in PBS supplemented with the soft detergent Igepal (Fluka).; type: functional, organism-based, Mus musculus; details: Tulahuen, NIH3T3
Leishmania donovani [12] = experiment: as §1, with “Amastigotes/Macrophages.” for “Infected Macrophages.”, “Average number” for “Percent”, “amastigotes per” for “infected”, “cell” for “cells”; type: functional, organism-based, Homo sapiens; details: THP-1

Compound | IC50 at 48 h [1] [µM] | IC50 (Leishmania donovani [2]) [µM] | IC50 [3] [µM] | IC50 (Leishmania donovani [4]) [µM] | IC50 (Leishmania donovani [5]) [µM] | IC50 (Trypanosoma cruzi [6]) [µM] | IC50 [7] [µM] | IC50 (Trypanosoma cruzi [8]) [µM] | IC50 (Trypanosoma cruzi [9]) [µM] | IC50 [10] [µM] | IC50 (Trypanosoma cruzi [11]) [µM] | IC50 (Leishmania donovani [12]) [µM]
COc1ccc(C(=O)Nc2c(C)nn(COc3cccc(C(F)(F)F)c3)c2C)cc1 | > 100 | > 50.1 | 0.794 | > 50.1 | 31.6 | 25.1 | 12.6 | > 50.1 | 39.8 | 0.794 | 25.1 | > 50.1
Cc1cc2nc(N3CC[C@H]3C(N)=O)nc(Nc3cc(C4CC4)[nH]n3)c2s1 | > 100 | 0.794 | 0.126 | 2 | 0.794 | 3.98 | > 100 | 0.501 | 7.94 | 0.0794 | 6.31 | 1.26
COc1ccc(-c2cc(C)no2)cc1S(=O)(=O)Nc1ccc(C)c(C)c1 | > 100 | 7.94 | 20 | 2.51 | > 50.1 | 5.01 | 15.8 | 15.8 | 7.94 | 20 | 5.01 | 2
COc1ccc(-c2cnc(C)o2)cc1S(=O)(=O)Nc1ccc(C)cc1C | > 100 | 3.98 | 31.6 | 3.16 | > 50.1 | 3.16 | 25.1 | > 50.1 | 3.16 | 6.31 | 2.82 | 2.51
CNc1nc(C)nc(N2CCc3cc(C(=O)NCc4ccc(-c5cc[nH]n5)cc4Cl)ccc32)n1 | > 100 | 2.51 | 10 | 0.316 | > 50.1 | > 50.1 | 5.01 | 20 | > 50.1 | 12.6 | > 50.1 | 0.398
O=C(c1cccc(Nc2ncc(-c3ccc4c(c3)OCO4)cn2)c1)N1CCOCC1 | > 126 | 2 | > 50.1 | 3.98 | > 63.1 | 0.794 | 20 | 6.31 | 1.26 | 25.1 | 6.31 | 1.58
O=C1CN(C(=O)c2cccc(Nc3ncc(-c4ccc5c(c4)OCO5)cn3)c2)CCN1 | > 126 | 1.58 | > 50.1 | 5.01 | > 63.1 | 0.501 | 25.1 | > 63.1 | 0.794 | > 50.1 | 1.58 | 2
O=C(Nc1nc2ccccc2[nH]1)c1ccc2[nH]cnc2c1 | 50.1 | 2.51 | > 39.8 | 5.01 | > 50.1 | 50.1 | 5.01 | > 50.1 | > 50.1 | > 39.8 | 25.1 | 3.16
CNc1nc(C)nc(N2CCc3cc(C(=O)NCc4ccc(-c5nccn5C)cc4Cl)ccc32)n1 | 31.6 | 5.01 | 20 | 0.794 | 25.1 | 5.01 | 1.58 | 50.1 | 12.6 | 12.6 | 5.01 | 0.794
COc1ncc(-c2ccc3ncnc(N4CCOCC4)c3c2)cc1NS(C)(=O)=O | > 100 | 3.16 | 0.501 | 5.01 | 1 | 2.51 | 39.8 | 1.58 | 6.31 | 0.316 | 0.501 | 0.631
COc1ccc(CNc2nsc3ccccc23)cc1OC | 50.1 | 3.16 | 6.31 | 6.31 | 25.1 | 20 | 12.6 | > 50.1 | 25.1 | 7.94 | 6.31 | 5.01
CC1CN(Cc2ccc(C#N)cc2)CCN1c1ccc(NC(=O)c2ccccc2F)cc1 (centres undefined) | > 100 | 39.8 | > 39.8 | 10 | > 50.1 | > 50.1 | 31.6 | > 50.1 | > 50.1 | > 39.8 | 25.1 | 5.01
COc1ncc(-c2ccc3nccc(-c4ccncc4)c3c2)cc1NS(C)(=O)=O | > 100 | 3.16 | 1 | 2.51 | 3.16 | 12.6 | 79.4 | 5.01 | 25.1 | 0.316 | 1.58 | 0.631
CCCCc1cc(Nc2cc(C3CCC3)[nH]n2)nc(N2CCC2C(N)=O)n1 (centres undefined) | > 100 | 3.98 | 0.158 | 2 | 1 | 1.58 | > 100 | 0.794 | 3.16 | 0.126 | 3.16 | 0.631
O=C(COc1nn(-c2ccccc2)c2ncccc12)NCc1ccccc1 | > 100 | 0.398 | > 39.8 | 0.316 | > 50.1 | 31.6 | 6.31 | > 50.1 | > 50.1 | > 39.8 | 12.6 | 0.0794
CC(=O)NCCNc1cc(-c2ccnc(Nc3cccc(Cl)c3)n2)ccn1 | 25.1 | 0.316 | 0.2 | 0.251 | 0.1 | 0.158 | 5.01 | 0.398 | 1.58 | 0.2 | 0.398 | 0.1
CC(C)n1c(-c2nonc2N)nc2cccc(OCCN3CCCC3)c21 | > 100 | > 50.1 | 0.794 | 31.6 | 31.6 | 25.1 | 39.8 | 31.6 | 15.8 | 0.794 | 10 | 20

Source: ChEMBL document CHEMBL3430912, “GSK Tres Cantos Anti-Kinetoplastid Screening (TCAKS) Data”
